Here are results for 18 molecules from US11504382B2, “Tricyclic inhibitors of Hepatitis B virus” (Antios Therapeutics, Inc., priority 2018, dated 2022).

The subject of this assay is HBV. Put plainly: HBV inhibition assay in HepAD38 cells (extracellular HBV DNA by direct qPCR). The format is cell-based, Hepatitis B virus. Particulars: 96 hours; for EC50: 8-point dose-response curve, read-out: HBV inh EC50. (Real-time PCR tracks product formation cycle by cycle.)
Where [1] appears, read: Hepatitis B virus, relative to non-treated reference, read-out: Anti HBV Activity (conc μM).

Structures are written as SMILES. Where two headings read alike, the source gives them in different places. Bounds are passed on as bounds.

A word on the EC50: it is the concentration at which the effect is half-maximal. In the case of `Cc1cc(NC(=O)c2c3c(cn2C)S(=O)(=O)N[C@H]2CN(C(=O)[C@@H]4CCCO4)C[C@H]2CO3)ccc1F` [Example E101, (3aR,10aR)—N-(4-fluoro-3-methylphenyl)-7-methyl-2-((S)-tetrahydrofuran-2-carbonyl)-2,3,3a,4,10,10a-hexahydro-1H,7H-dipyrrolo[3,4-b:3′,4′-f][1,4,5]oxathiazocine-8-carboxamide 5,5-dioxide], under “Hepatitis B virus”, the EC50 is less than 1 µM.

With `Cn1cc2c(c1C(=O)Nc1cc(F)c(F)c(F)c1)OC[C@H]1CN(c3ncc(O)cn3)C[C@H]1NS2(=O)=O` (relative stereo) [Example E84, cis-2-(5-hydroxypyrimidin-2-yl)-7-methyl-N-(3,4,5-trifluorophenyl)-2,3,3a,4,10,10a-hexahydro-1H,7H-dipyrrolo[3,4-b:3′,4′-f][1,4,5]oxathiazocine-8-carboxamide 5,5-dioxide], under “Hepatitis B virus”, the EC50 was less than 1 µM.

With `Cc1cc(NC(=O)c2c3c(cn2C)S(=O)(=O)NC2CCN(C(=O)C4(C)COC4)CC2CO3)ccc1F` (racemic) [Example E126, Cis-N-(4-fluoro-3-methylphenyl)-2-methyl-8-(3-methyloxetane-3-carbonyl)-5,5a,6,7,8,9,9a,10-octahydro-2H-pyrido[4,3-f]pyrrolo[3,4-b][1,4,5]oxathiazocine-1-carboxamide 4,4-dioxide], the EC50 (Hepatitis B virus) is less than 1 µM.

As for `Cn1cc2c(c1C(=O)Nc1ccc(F)c(F)c1)OCC1CCCCN1S2(=O)=O` (centres unmarked) [Example E1, N-(3,4-difluorophenyl)-2-methyl-6,7,8,9,9a,10-hexahydro-2H-pyrido[1,2-e]pyrrolo[3,4-b][1,4,5]oxathiazepine-1-carboxamide 4,4-dioxide], the inhibition at 1 µM (Hepatitis B virus, 1 μM, relative to non-treated reference, read-out: Anti HBV Activity (conc μM)) was less than 50%. Where the note is “Hepatitis B virus”, the EC50 was greater than 1 µM.

`Cn1cc2c(c1C(=O)Nc1cc(F)c(F)c(F)c1)OCC1CN(CC(F)(F)F)CC1NS2(=O)=O` (stereo not drawn) [Example E73, cis-7-methyl-2-(2,2,2-trifluoroethyl)-N-(3,4,5-trifluorophenyl)-2,3,3a,4,10,10a-hexahydro-1H,7H-dipyrrolo[3,4-b:3′,4′-f][1,4,5]oxathiazocine-8-carboxamide 5,5-dioxide]: under setting [1], the inhibition at 0.1 µM was greater than 50%.

Regarding `Cc1cc(NC(=O)c2c3c(cn2C)S(=O)(=O)NC2CN(C(=O)c4ncon4)CC2CO3)ccc1F` (stereo not drawn) [Example E63, cis-N-(4-fluoro-3-methylphenyl)-7-methyl-2-(1,2,4-oxadiazole-3-carbonyl)-2,3,3a,4,10,10a-hexahydro-1H,7H-dipyrrolo[3,4-b:3′,4′-f][1,4,5]oxathiazocine-8-carboxamide 5,5-dioxide], the EC50 (Hepatitis B virus) was less than 1 µM.

For the molecule `CNC(=O)N1CC[C@H]2NS(=O)(=O)c3cn(C)c(C(=O)Nc4ccc(F)c(F)c4)c3OC[C@H]21` (single isomer, unassigned) [Example E26], the inhibition at 0.1 µM under setting [1] is less than 50%.

As to `Cc1nnc(C(=O)N2C[C@H]3COc4c(cn(C)c4C(=O)Nc4ccc(F)c(C)c4)S(=O)(=O)N[C@@H]3C2)o1` (single isomer, unassigned) [Example E153], where the note is “Hepatitis B virus”, the EC50 is less than 1 µM.

For the molecule `Cn1cc2c(c1C(=O)Nc1ccc(F)c(F)c1)OC[C@H]1CCC[C@@H]1NS2(=O)=O` [Example E9, (5aS,8aS)—N-(3,4-difluorophenyl)-2-methyl-5a,6,7,8,8a,9-hexahydro-2H,5H-cyclopenta[f]pyrrolo[3,4-b][1,4,5]oxathiazocine-1-carboxamide 4,4-dioxide], under “Hepatitis B virus”, the EC50 is less than 1 µM.

Consider `Cc1cc(NC(=O)c2c3c(cn2C)S(=O)(=O)N[C@H]2CN(C(=O)C4CCO4)C[C@H]2CO3)ccc1F` (stereo partly drawn) [Example E110, (3aR,10aR)—N-(4-fluoro-3-methylphenyl)-7-methyl-2-(oxetane-2-carbonyl)-2,3,3a,4,10,10a-hexahydro-1H,7H-dipyrrolo[3,4-b:3′,4′-f][1,4,5]oxathiazocine-8-carboxamide 5,5-dioxide], for which the EC50 (Hepatitis B virus) was less than 1 µM.

Regarding `Cn1cc2c(c1C(=O)Nc1cc(F)c(F)c(F)c1)OCC1CN(c3ccccn3)CC1NS2(=O)=O` (stereo not drawn) [Example E81, cis-7-methyl-2-(pyridin-2-yl)-N-(3,4,5-trifluorophenyl)-2,3,3a,4,10,10a-hexahydro-1H,7H-dipyrrolo[3,4-b:3′,4′-f][1,4,5]oxathiazocine-8-carboxamide 5,5-dioxide], under setting [1], the inhibition at 0.1 µM is greater than 50%.

With `Cc1nnc(C(=O)N2C[C@H]3COc4c(cn(C)c4C(=O)Nc4ccc(F)c(C)c4)S(=O)(=O)N[C@H]3C2)s1` [Example E107, (3aR,10aR)—N-(4-fluoro-3-methylphenyl)-7-methyl-2-(5-methyl-1,3,4-thiadiazole-2-carbonyl)-2,3,3a,4,10,10a-hexahydro-1H,7H-dipyrrolo[3,4-b:3′,4′-f][1,4,5]oxathiazocine-8-carboxamide 5,5-dioxide], the concentration for a half-maximal effect (EC50) (Hepatitis B virus) is less than 1 µM.

For `Cc1cc(NC(=O)c2c3c(cn2C)S(=O)(=O)NC2CCN(C(=O)C4(C)CCCO4)CC2CO3)ccc1F` (racemic) [Example E132, Trans-N-(4-fluoro-3-methylphenyl)-2-methyl-8-(2-methyltetrahydrofuran-2-carbonyl)-5,5a,6,7,8,9,9a,10-octahydro-2H-pyrido[4,3-f]pyrrolo[3,4-b][1,4,5]oxathiazocine-1-carboxamide 4,4-dioxide], the EC50 is less than 1 µM.

Consider `CC(=O)OCC(=O)N1CC2COc3c(cn(C)c3C(=O)Nc3cc(F)c(F)c(F)c3)S(=O)(=O)NC2C1` (stereo not drawn) [Example E70, cis-2-(7-methyl-5,5-dioxido-8-((3,4,5-trifluorophenyl)carbamoyl)-3a,4,10,10a-tetrahydro-1H,7H-dipyrrolo[3,4-b:3′,4′-f][1,4,5]oxathiazocin-2(3H)-yl)-2-oxoethyl acetate], for which, under setting [1], the inhibition at 0.1 µM was less than 50%.

For the molecule `Cn1cc2c(c1C(=O)Nc1cc(F)c(F)c(F)c1)OC1COCC1NS2(=O)=O` (racemic) [Example E7, trans-7-methyl-N-(3,4,5-trifluorophenyl)-1,3a,4,9a-tetrahydro-3H,7H-furo[3,4-f]pyrrolo[3,4-b][1,4,5]oxathiazepine-8-carboxamide 5,5-dioxide], where the note is “Hepatitis B virus”, the EC50 was less than 1 µM.

Turning to `Cc1nnc(C(=O)N2C[C@H]3COc4c(cn(C)c4C(=O)Nc4ccc(F)c(Cl)c4)S(=O)(=O)N[C@H]3C2)o1` [Example E99, (3aR,10aR)—N-(3-chloro-4-fluorophenyl)-7-methyl-2-(5-methyl-1,3,4-oxadiazole-2-carbonyl)-2,3,3a,4,10,10a-hexahydro-1H,7H-dipyrrolo[3,4-b:3′,4′-f][1,4,5]oxathiazocine-8-carboxamide 5,5-dioxide], where the note is “Hepatitis B virus”, the EC50 was less than 1 µM.

For `Cc1nnc(C(=O)N2C[C@H]3CSc4c(cn(C)c4C(=O)Nc4ccc(F)c(C)c4)S(=O)(=O)N[C@H]3C2)o1` [Example E124, (3aR,10aR)—N-(4-fluoro-3-methylphenyl)-7-methyl-2-(5-methyl-1,3,4-oxadiazole-2-carbonyl)-2,3,3a,4,10,10a-hexahydro-1H,7H-dipyrrolo[3,4-c:3′,4′-g][1,6,2]dithiazocine-8-carboxamide 5,5-dioxide], for the setting “Hepatitis B virus”, the EC50 was less than 1 µM.

With `CCOC(=O)N1CC2COc3c(cn(C)c3C(=O)Nc3ccc(F)c(F)c3)S(=O)(=O)NC2C1` (racemic) [Example E13, Cis-Ethyl 8-((3,4-difluorophenyl)carbamoyl)-7-methyl-3a,4,10,10a-tetrahydro-1H,7H-dipyrrolo[3,4-b:3′,4′-f][1,4,5]oxathiazocine-2(3H)-carboxylate 5,5-dioxide], under setting [1], the inhibition at 0.1 µM is greater than 50%. Also, the EC50 (Hepatitis B virus) was less than 1 µM.
